Measurements published in article PMC3242765, “Inhibitors of Alphavirus Entry and Replication Identified with a Stable Chikungunya Replicon Cell Line and Virus-Based Assays” (PLoS ONE, 2011).
Counter-ions that a name gives are not always drawn.

How the values were obtained:
CHIKV replicon = experiment: microbe, parasite or virus in culture; type: cell-based, Chikungunya virus (CHIKV)

SMILES	CHIKV replicon % left (CHIKV replicon) [%]	SFV replication % left (surviving fraction, remaining percentage of SFV replication) (SFV-Rluc) [%]
CCCc1cc(=O)[nH]c(=S)[nH]1 [6-Propyl-2-thiouracil]	100.5	81.0
Cn1c(=O)c2c(ncn2CC(O)CO)n(C)c1=O (stereo not drawn) [7-(2,3-Dihydroxypropyl)theophylline]	54.3	100.1
CC(O)Cn1cnc2c1c(=O)n(C)c(=O)n2C (stereo not drawn) [7-(β-Hydroxypropyl)theophylline]	70.9	125.5
COc1ccc2c(C)cc(=O)oc2c1 [7-Methoxy-4-methylcoumarin]	100.6	72.2
C#C[C@]1(O)CC[C@H]2[C@@H]3CCc4cc(O)ccc4[C@H]3CC[C@@]21C [17 -a-ethynylestradiol]	59.8	11.7
Oc1cc(O)c2c(c1)O[C@H](c1ccc(O)c(O)c1)[C@@H](O)C2 [(+)-Catechin]	96.5	64.5
O=C1c2c(O)cc(O)cc2O[C@H](c2ccc(O)c(O)c2)[C@H]1O [(+)-Taxifolin]	105.4	93.7
Cc1c(C)c2c(c(C)c1OC(=O)CCC(=O)O)CC[C@@](C)(CCC[C@H](C)CCC[C@H](C)CCCC(C)C)O2 [(+)-a-Tocopherol acid succinate]	62.2	75.3
Oc1cc(O)c2c(c1)O[C@H](c1ccc(O)c(O)c1)[C@H](O)C2 [(-)-Epicatechin]	79.6	97.1
O=C(O[C@@H]1Cc2c(O)cc(O)cc2O[C@@H]1c1cc(O)c(O)c(O)c1)c1cc(O)c(O)c(O)c1 [(-)-Epigallocatechin gallate]	90.4	155.3
Oc1cc(O)c2c(c1)O[C@H](c1cc(O)c(O)c(O)c1)[C@H](O)C2 [(-)-Epigallocatechin]	89.9	101.9
O=C(O)[C@]1(O)C[C@@H](O)[C@@H](O)[C@H](O)C1 [(-)-Quinic acid]	106.9	98.2
COc1ccc(-c2cc(=O)c3c(O)cc(O)cc3o2)cc1 [Acacetin]	103.3	78.1
CC(=O)Nc1ccc(O)cc1 [Acetaminophen [paracetamol]]	85.2	63.5
CC(=O)Nc1ccccc1 [Acetanilide]	92.2	57.3
CC(=O)Nc1nnc(S(N)(=O)=O)s1 [Acetazolamide]	102.2	71.3
O=C1NC2NC(=O)NC2N1 (stereo not drawn) [Acetyleneurea [acetylene carbamide]]	105.4	55.2
CC(=O)N(c1onc(C)c1C)S(=O)(=O)c1ccc(N)cc1 [Acetylsulfisoxazole]	82.1	40.4
C=CCC1(CC=C)C(=O)NC(=O)NC1=O [Allobarbital]	121.1	45.6

SMILES	CHIKV replicon % left (CHIKV replicon) [%]	SFV replication % left (surviving fraction, remaining percentage of SFV replication) (SFV-Rluc) [%]
O=c1cc(-c2ccccc2)oc2c1ccc1ccccc12 [Alphanaphthoflavone]	30.8	14.6
CCC(CN(C)C)(CN(C)C)OC(=O)c1ccccc1.Cl [Amydricaine hydrochloride]	74.3	43.4
c1ccc(CN(CC2=NCCN2)c2ccccc2)cc1 [Antazoline hydrochloride]	100.5	38.7
Cc1cc(=O)n(-c2ccccc2)n1C [Antipyrine]	102.6	60.1
COC(=O)C1=CCCN(C)C1 [Arecoline hydrobromide]	101.1	83.6
C[N+]1(C)[C@@H]2CC[C@H]1C[C@@H](OC(=O)C(CO)c1ccccc1)C2 (stereo partly drawn) [Atropine methyl nitrate]	61.7	46.8
CCCCNCC(O)c1ccc(O)cc1 (stereo not drawn) [Bamethan]	96.9	67.1
CCC1(CC)C(=O)NC(=O)NC1=O [Barbital]	106.1	64.7
O=C1CC(=O)NC(=O)N1 [Barbituric acid]	88.4	48.8
CCOC(=O)c1ccc(N)cc1 [Benzocaine]	85.4	43.4
O=C(O)c1ccccc1 [Benzoic acid]	99.1	71.6
COc1c2ccoc2cc2oc(=O)ccc12 [Bergapten, 5-Methoxypsoralen]	100.5	46.8
CN(Cc1cc(Br)cc(Br)c1N)C1CCCCC1 [Bromhexine hydrochloride]	82.8	64.8
CCCCNC(=O)c1ccc(Cl)cc1O [Buclosamide]	100.6	49.6
CC(C)(C)NCC(O)COc1ccccc1C#N (stereo not drawn) [Bunitrolol]	58.9	40.7
CS(=O)(=O)OCCCCOS(C)(=O)=O [Busulfan]	100.5	51.8
CCCCC1(CC)C(=O)NC(=O)NC1=O [Butethal]	78.2	45.2
CCC(C)NCC(O)c1ccc2c(c1)CCCC2 (stereo not drawn) [Butidrine]	89.2	73.1
CCCCOC(=O)c1ccc(N)cc1 [Butyl 4-Aminobenzoate]	102.7	76.6

SMILES	CHIKV replicon % left (CHIKV replicon) [%]	SFV replication % left (surviving fraction, remaining percentage of SFV replication) (SFV-Rluc) [%]
COc1ccc(O)c(C(C)(C)C)c1 [Butylated hydroxyanisole]	79.9	66.8
Cc1cc(C(C)(C)C)c(O)c(C(C)(C)C)c1 [Butylated hydroxytoluene]	47.8	72.6
O=C(O)/C=C/c1ccc(O)c(O)c1 [Caffeic acid]	85.2	98.7
CCCCNc1ccc(C(=O)OCCN(C)C)cc1 [Cainopan, p-Butylaminobenzoyldimethylaminoethanol]	82.2	63.8
CC(C)(CO)[C@@H](O)C(=O)NCCC(=O)O [Calcium pantothenate]	89.1	67.9
CC[C@@]1(O)C(=O)OCc2c1cc1n(c2=O)Cc2cc3ccccc3nc2-1 [Camptothecin]	100.4	87.7
NC(=O)N1c2ccccc2C=Cc2ccccc21 [Carbamazepine]	100.2	57.2
CC(C)(C)NCC(O)COc1cccc2c1CCC(=O)N2 (stereo not drawn) [Carteolol hydrochloride]	78.1	67.2
Oc1ccccc1O [Catechol]	77.7	58.4
CCCCCCCCCCCCCCCC[N+](C)(C)C [Cetrimonium bromide]	80.5	75.0
O=C(N[C@H](CO)[C@H](O)c1ccc([N+](=O)[O-])cc1)C(Cl)Cl [Chloramphenicol]	53.2	73.8
CNC1=Nc2ccc(Cl)cc2C(c2ccccc2)=[N+]([O-])C1 [Chlordiazepoxide]	100.6	54.3
CC(C)(O)C(Cl)(Cl)Cl [Chlorobutanol]	95.1	84.2
NS(=O)(=O)c1cc2c(cc1Cl)N=CNS2(=O)=O [Chlorothiazide]	82.1	90.3
CN(C)CC/C=C1/c2ccccc2Sc2ccc(Cl)cc21 [Chlorprothixene hydrochloride]	78.2	90.3
O=C(O)c1cc(-c2ccccc2)nc2ccccc12 [Cinchophen]	51.2	65.1
Cl.Cl.OCCN1CCN(CC/C=C2/c3ccccc3Sc3ccc(C(F)(F)F)cc32)CC1 [Cis(Z)-Flupentixol dihydrochloride]	102.7	92.6
COc1cc(OC)c2ccc(=O)oc2c1 [Citropten]	106.4	67.4
Oc1c(I)cc(Cl)c2cccnc12 [Clioquinol]	32.7	71.9
